Experiment [1] has as its target T1, AsGAR-1 (Ascaris suum, UniProt C0KJK1). Put plainly: cell-based. To be noted: read-out: yeast functional expression, growth reporter, agonist at 10^-4 M.
The target in experiment [2] is T1, AsGAR-1. Kind of experiment: yeast functional expression, antagonism of […] ACh by […] compound. Format: cell-based. The conditions noted are these: read-out: % inhibition at 10^-4 M.
Experiment [3] deals with T1, AsGAR-1. The description is as above. Format: cell-based. To be noted: read-out: % of control growth at 10^-4 M.

Take `COC(=O)C1=CCCN(C)C1` [Arec, arecoline]: on AsGAR-1 [1], the fold induction at 100 µM was 10.2 ± 1.6.
Usually inhibition stands for the relative decrease from the control value, in per cent. `CN1[C@@H]2CC[C@H]1C[C@@H](OC(=O)C(CO)c1ccccc1)C2` (some centres unmarked) [Atr, atropine]: the inhibition at 100 µM on AsGAR-1 [2] came to 62.2%.
As for `CC(C[N+](C)(C)C)OC(N)=O` (centres unmarked) [Beth, bethanechol], the fold induction at 100 µM on AsGAR-1 [1] was determined as 7.7 ± 0.8.
`C[N+](C)(C)CCOC(N)=O` [Carb, carbachol]: the fold induction at 100 µM at AsGAR-1 [1] was 10.8 ± 1.7.
With `CN1CCN2c3ccccc3Cc3ccccc3C2C1` (centres unmarked) [Mian, mianserin], the remaining activity at 100 µM at AsGAR-1 [3] was 24 ± 0.1%.
For the compound `C[N+](C)(C)CC#CCN1CCCC1=O` [Oxo, oxotremorine M], the fold induction at 100 µM on AsGAR-1 [1] was 8.2 ± 1.7.
As to `CC(C)NCC(O)COc1cccc2ccccc12` (centres unmarked) [Prop, propranolol], the remaining activity at 100 µM on AsGAR-1 [3] came out at 41.2 ± 8.9%.
For `O=C(CCCN1CCC2(CC1)C(=O)NCN2c1ccccc1)c1ccc(F)cc1` [Spip, spiperone], the remaining activity at 100 µM on AsGAR-1 [3] was 52.8 ± 7.6%.

(Values after publication PMC2713365 (International journal for parasitology, 2009).)
